Reference: patent publication US8772002B1, “Method for treatment of microorganisms during propagation, conditioning and fermentation using hops acid extracts and organic acid” (Hercules Incorporated, priority 2013, dated 2014)
Like-named read-outs stand apart in the source and are kept apart here.

Assays:
Lactobacillus plantarum = test: Minimal Inhibitory Concentration (MIC), two-fold dilution series in 96 well microplate; assay type: cell-based; details: for MIC: Lactiplantibacillus plantarum
Description: This is the lowest concentration of a substance or substances which can achieve complete inhibition of growth.
In order to determine the Minimal Inhibitory Concentration, a two-fold dilution series of the antimicrobial is constructed with the dilutions being made in growth media. The dilutions are made in a 96 well microplate such that each well has a final volume of 280 μl of media and antimicrobial. […] After the dilution series is constructed the wells receive an inoculum of microbe suspended in growth media such that the final concentration of microbes in the well is i˜5×10^5 cfu/ml. In these examples the test microbe used is Lactobacillus plantarum. The cultures are incubated at 37° C. for 18-24 hours, and the wells scored as positive or negative for growth based on a visual examination for turbid wells, with turbidity being an indicator of growth.
(§1) Minimal inhibitory concentrations were determined for both citric acid and hops acid at pH 6 using the protocol described above with Lactobacillus plantarum as the test microbe. Checkerboard synergy plates were constructed as described, the wells inoculated to a final concentration of ˜5×10^5 cfu/ml, incubated for 18-24 hours, and then scored visually for growth/no growth.
as §1, with “benzoic” for “citric”

Weisella confusa = details: cited from earlier work
fermentation = details: cited from earlier work

Q: For O=C(O)CC(O)(CC(=O)O)C(=O)O [Citric Acid, citric acid], which MIC (Lactobacillus plantarum; pH 6, 37° C., 18-24 hours, complete inhibition of growth, read-out: Citric Acid MIC (QA) used alone) is on record?
A: The MIC was 100 mg/mL.

Q: What about the “Citric Acid MIC (QA) used alone” value (Lactobacillus plantarum; pH 6, 37° C., 18-24 hours, complete inhibition of growth) of the same compound?
A: Its value is 100000 ppm.

Q: Which “concentration required to inhibit growth of Weisella confusa” value (Weisella confusa) does the source give for Virginiamycin here?
A: Its value is “over 25 mg/L”.

Q: What about the “concentration that will suppress fermentation” value (fermentation) of the same compound?
A: The value was “over 2 mg/L”.

Q: With O=C(O)c1ccccc1 [Benzoic Acid, benzoic acid] as the compound, how does the MIC (Lactobacillus plantarum; pH 6, read-out: Benzoic Acid MIC (QA) used alone) read?
A: Its MIC is 100 mg/mL.
